Experimental data reported in patent publication US20240391870A1 (Arcturus Therapeutics, Inc., priority 2023, published 2024).
Like-named read-outs stand apart in the source and are kept apart here.

Tests used:
[1] = Lipid nanoparticle size, PDI and encapsulation; format: physicochemical; details: Table 3; for Size (nm): lipid nanoparticle; for EE %: lipid nanoparticle encapsulation
Protocol: In the context of nucleic acids, full encapsulation may be determined by performing a membrane-impermeable fluorescent dye exclusion assay, which uses a dye that has enhanced fluorescence when associated with nucleic acid. Encapsulation is determined by adding the dye to a lipid formulation, measuring the resulting fluorescence, and comparing it to the fluorescence observed upon addition of a small amount of nonionic detergent. Detergent-mediated disruption of the lipid layer releases the encapsulated nucleic acid, allowing it to interact with the membrane-impermeable dye. Nucleic acid encapsulation may be calculated as E=(I0−I)/I0, where I and I0 refer to the fluorescence intensities before and after the addition of detergent.

hEPO = hEPO mRNA expression evaluation (hEPO-LNPs); format: in vivo, Balb/c mice; details: Table 3; 0.3 mg/kg
factor VII = experiment: Factor VII knock down evaluation (LNP with FVII siRNA); format: in vivo, Balb/C mice; details: Table 3; 0.03 mg/kg
Outline: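 Female Balb/C mice, 7–8 weeks old, received FVII siRNA lipid nanoparticles intravenously at 0.03 or 0.01 mg/kg. Plasma was collected 48 h later and FVII protein measured by chromogenic assay at 405 nm against a control plasma calibration curve. Levels are relative to saline-treated controls.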

[2] = In vivo biodegradability assay (lipid in liver); details: Table 3; liver tissue, 0.3 mg/kg dose
Protocol: (§1) In vivo biodegradability assay was performed to assess the biodegradability of lipids in the LNP. Briefly, mice were injected with either 0.1 or 0.03 mg/Kg dose and after 24 or 48 hours mice livers were collected. To measure the concentration of lipids in the mouse liver, liver samples were homogenized in appropriate buffer in 1-10 dilution and mixed with the same amount of stabilized plasma. The samples were then mixed with organic solvents spiked with internal standard to precipitate proteins. After centrifugation, supernatant was diluted further with organic solvent before sample analysis by LC-MS. In LC-MS analysis, positive electrospray ionization was used, and multiple reaction monitoring (MRM) parameters were set up to specifically target the lipid analyte and internal standard. Calibration standards were prepared in stabilized plasma and mixed with same amount of homogenization buffer before protein precipitation. Quality control samples with known amounts of lipid was prepared in blank liver homogenate to monitor the precision and accuracy of the assay.

[3] = Lipid nanoparticle size, PDI and encapsulation; format: physicochemical; details: Table 3
[4] = Measured pKa in the indicated formulation
Protocol: Measured pKa values were determined based on the pH measured in the indicated formulation (i.e., EPO or FVII formulation).

[5] = mouse, in vivo
Protocol: as §1

Size (nm) [1] [nm]	EE % [1] [%]	Invivo lipid degradability ng/g of Liver tissue @ 0.3 mg/kg dose [2]	PDI [3]	pKa [4]	Structure (SMILES)	EPO expression in ng/mL @ 0.3 mg/kg (hEPO) [ng/mL]	FVII KD % @ 0.03 mg/kg (factor VII) [%]	Invivo lipid degradability ng/g of Liver tissue @ 0.3 mg/kg dose [5] [ng/g]	pKa ([4]; Table 3, formulation not indicated)
65.71	90.4	36000 ng/g	0.059	6.53	CC1CCC(CCC(=O)OCC(C)(COC(=O)CCC2CCC(C)CC2)COC(=O)CCC(CCC(=O)OCC(C)(COC(=O)CCC2CCC(C)CC2)COC(=O)CCC2CCC(C)CC2)OC(=O)CCCN(C)C)CC1 (centres unmarked) [Lipid 51, Bis(2-methyl-3-((3-(4-methylcyclohexyl)propanoyl)oxy)-2-(((3-(4-methylcyclohexyl)propanoyl)oxy)methyl)propyl) 4-((4-(dimethylamino)butanoyl)oxy)heptanedioate]	868.5	65.23		
76.03	90.9	BLOQ	0.072	7.3	CCCCCCCC(=O)OCC(C)(COC(=O)CCCCCCC)COC(=O)CCCN(CCCC(=O)OCC(C)(COC(=O)CCCCCCC)COC(=O)CCCCCCC)C(=O)SCCCN(C)C [Lipid 54]	25548.45	86.88		
67.34	91.5	81900 ng/g	0.081	6.55	CCCCCC(C)(C)C(=O)OCC(C)(COC(=O)CCCN(CCCC(=O)OCC(C)(COC(=O)C(C)(C)CCCCC)COC(=O)C(C)(C)CCCCC)C(=O)SCCCN(C)C)COC(=O)C(C)(C)CCCCC [Lipid 56]	5463.76	46.3		
77.62	90.8	BLOQ	0.038	7.2	CN(C)CCCSC(=O)N(CCCC(=O)OCC(COC(=O)CCC1CCCCC1)COC(=O)CCC1CCCCC1)CCCC(=O)OCC(COC(=O)CCC1CCCCC1)COC(=O)CCC1CCCCC1 [Lipid 52]	17888.62	69.66		
81.62	91.5		0.114	7.08	CC1CCC(CCC(=O)OCC(C)(COC(=O)CCC2CCC(C)CC2)COC(=O)CCN(CCC(=O)OCC(C)(COC(=O)CCC2CCC(C)CC2)COC(=O)CCC2CCC(C)CC2)C(=O)OCCCN(C)C)CC1 (centres unmarked) [Lipid 46]	958.2	82.9		
97.08	94.7	28100 ng/g	0.13	7.04	CC1CCC(CCC(=O)OCC(C)(COC(=O)CCC2CCC(C)CC2)COC(=O)CCN(CCCCCN(C)C)CCC(=O)OCC(C)(COC(=O)CCC2CCC(C)CC2)COC(=O)CCC2CCC(C)CC2)CC1 (centres unmarked) [Lipid 50, (((3,3′-((5-(dimethylamino)pentyl)azanedivl)bis(propanovl))bis(oxy))bis(methylene))bis(2-methylpropane-2,1,3-triyl)tetrakis(3-(4-methylcyclohexyl) propanoate)]	579.2	93.5		
71.78	93.0	63300 ng/g	0.103	6.59	CCCCCCC(C)(C)C(=O)OCC(COC(=O)CCCN(CCCC(=O)OCC(COC(=O)C(C)(C)CCCCCC)COC(=O)C(C)(C)CCCCCC)C(=O)SCCCN(C)C)COC(=O)C(C)(C)CCCCCC [Lipid 55]	10312.89	72.17		
85.94	93.1	14200 ng/g	0.076	6.93	CN(C)CCCSC(=O)N(CCCC(=O)OCC(C)(COC(=O)CCC1CCCCC1)COC(=O)CCC1CCCCC1)CCCC(=O)OCC(C)(COC(=O)CCC1CCCCC1)COC(=O)CCC1CCCCC1 [Lipid 53, ((4,4′-((((3-(Dimethylamino)propyl)thio)carbonyl)azanediyl)bis(butanoyl))bis(oxy))bis(methylene))bis(2-methylpropane-2,1,3-triyl)tetrakis(3 cyclohexylpropanoate)]	15844.04	85.45		

Structure (SMILES)	Size (nm) [1] [nm]	EE % [1] [%]	Invivo lipid degradability ng/g of Liver tissue @ 0.3 mg/kg dose [2]	PDI [3]	pKa [4]	EPO expression in ng/mL @ 0.3 mg/kg (hEPO) [ng/mL]	FVII KD % @ 0.03 mg/kg (factor VII) [%]	Invivo lipid degradability ng/g of Liver tissue @ 0.3 mg/kg dose [5] [ng/g]	pKa ([4]; Table 3, formulation not indicated)
Cc1ccc(CCC(C)C(=O)OCC(COC(=O)C(C)CCc2ccc(C)cc2)OC(=O)CCCN(CCCC(=O)OC(COC(=O)C(C)CCc2ccc(C)cc2)COC(=O)C(C)CCc2ccc(C)cc2)C(=O)SCCCN(C)C)cc1 (centres unmarked) [Lipid 63, ((4,4′-((((3-(dimethylamino)propyl)thio)carbonyl)azanediyl)bis(butanoyl))bis(oxy))bis(propane-2,1,3-triyl)tetrakis(2-methyl-4-(p-tolyl)butanoate)]	82.65	85.9		0.046		4601	76.17	603 ± 57.6	
CCn1cc(CCC(C)C(=O)OCC(COC(=O)C(C)CCc2cn(CC)c3ccccc23)OC(=O)CCCN(CCCC(=O)OC(COC(=O)C(C)CCc2cn(CC)c3ccccc23)COC(=O)C(C)CCc2cn(CC)c3ccccc23)C(=O)SCCCN(C)C)c2ccccc21 (centres unmarked) [Lipid 43, ((4,4′-((((3-(dimethylamino)propyl)thio)carbonyl)azanediyl)bis(butanoyl))bis(oxy))bis(propane-2,1,3-triyl)tetrakis(4-(1-ethyl-1H-indol-3-yl)-2-methylbutanoate)]	92.35	90	1970 ± 379 ng/g	0.05		14.3	15.24		6.33
